Source: patent US9446037B2, “Methods for the treatment of parkinson's disease psychosis using pimavanserin” (ACADIA Pharmaceuticals Inc., priority 2012, dated 2016)

Tests used:
[1] = tested on: Parkinson's disease psychosis (PDP) patients; assay: Phase III six-week randomized double-blind placebo-controlled study in PDP patients; format: in vivo, human
Description: A six-week, multi-center, randomized, double-blind, placebo-controlled study was conducted in PDP patients. The purpose of the study was to evaluate the safety and efficacy of 40 mg pimavanserin compared to placebo in the treatment of PDP.
A total of 199 patients were enrolled in the study and randomized on a one-to-one basis to receive either 40 mg of pimavanserin or placebo once daily for six weeks, following a two-week screening period including brief psycho-social therapy. Patients also received stable doses of their existing anti-Parkinson's therapy throughout the study.
At the screening visit, a trained member of the site staff worked with the patient's caregiver to devise a structured plan of social interaction for the patient and caregiver to follow at home. This brief non-pharmacologic psychosocial counseling was intended to help the patient and caregiver to manage the symptoms and provide standard of care prior to the blinded investigational treatment phase. Following the screening visit, patients received two follow-up phone calls (˜3- and 7-days from the screening visit) to review the plan and evaluate progress. Only those patients who met entry criteria at baseline were randomized to receive 40 mg pimavanserin or matching placebo for the 6-week treatment period.
The maximum duration of the study for each subject was approximately 12 weeks. Pimavanserin was administered in tablet form, once daily by mouth in 40 mg doses (2 tablets of 20 mg). Placebo was administered with visibly matching tablets, using the same route and regimen. The safety of subjects was assessed by monitoring adverse events, physical examinations, vital signs, clinical laboratory tests (hematology, clinical chemistry, and urinalysis), and electrocardiograms.
Primary Clinical Endpoint: The combined score for the modified 9-item hallucinations and delusions domains of the Scale for the Assessment of Positive Symptoms (SAPS-PD).
Key Secondary Endpoint: Parts II-III of the Unified Parkinson's Disease Rating Scale (UPDRS), which measures motor function.
Other Secondary Endpoints: Changes in the Clinical Global Impression Scale (CGI) with emphasis on severity (CGI-S) and improvement (CGI-I) of psychosis.
Exploratory Endpoints: the Caregiver Burden Scale, and Scales for Outcomes in Parkinson's Disease-Sleep scale (SCOPA-Sleep).
Note: mixed model repeated measures (MMRM) method was applied in primary analysis of the intent-to-treat (ITT) population. The significance test was based on least-square mean change from baseline for each arm using a 2-sided […]=0.05.

[2] = tested on: DOI ((±)-2,5-dimethoxy-4-iodoamphetamine, a serotonin agonist) induced head twitches; details: rat; oral doses of 3 and 10 mg/kg; cited from earlier work
[3] = tested on: hyperactivity induced by the N-methyl-D-aspartate antagonist MK-801; details: mice; oral doses of 3 and 10 mg/kg; cited from earlier work
[4] = tested on: gating deficit induced by DOI; details: rat; doses of 1 and 3 mg/kg SC; cited from earlier work
[5] = tested on: learning of a simple auto-shaped response; details: mice; intraperitoneal doses up to 32 mg/kg; cited from earlier work

SMILES: CC(C)COc1ccc(CNC(=O)N(Cc2ccc(F)cc2)C2CCN(C)CC2)cc1 [Pimavanserin, N-(1-methylpiperidin-4-yl)-N-(4-fluorophenylmethyl)-N′-(4-(2-methylpropyloxy)phenylmethyl)carbamide]
- safety and tolerability in the trial ([1]; 40 mg once daily oral, 6 weeks): safe and well tolerated
- SAPS-PD Mean Change at Day 43 ([1]; 40 mg once daily oral, 6 weeks, n = 95, ITT, MMRM least-square mean change from baseline, P-value 0.001 vs placebo): −5.79
- serious adverse event: urinary tract infection (number of patients) ([1]; 40 mg once daily oral, 6 weeks, placebo 1): 3
- adverse event incidence: falls ([1]; 40 mg once daily oral, 6 weeks, placebo 8.5%): 10.6%
- adverse event incidence: urinary tract infection ([1]; 40 mg once daily oral, 6 weeks, placebo 11.7%): 13.5%
- serious adverse event: psychotic disorder (number of patients) ([1]; 40 mg once daily oral, 6 weeks, placebo zero): 2
- CGI-I scale (secondary efficacy measure) ([1]; 40 mg once daily oral, 6 weeks, versus placebo, p=0.001): highly significant improvement
- Caregiver Burden Scale ([1]; 40 mg once daily oral, 6 weeks, versus placebo, p=0.002): highly significant improvement
- daytime wakefulness on SCOPA-sleep scale ([1]; 40 mg once daily oral, 6 weeks, versus placebo, p=0.012): significant improvements
- nighttime sleep on SCOPA-sleep scale ([1]; 40 mg once daily oral, 6 weeks, versus placebo, p=0.045): significant improvements
- improvement in psychosis at day 43 on SAPS-PD ([1]; 40 mg once daily oral, day 43, blinded independent centralized raters): 5.79 point
- treatment difference on SAPS-PD versus placebo ([1]; 40 mg once daily oral, day 43, p=0.001): 3.06 points
- change in combined UPDRS II & III scores ([1]; 40 mg once daily oral, mean change from baseline to day 43): −1.40
- motor function (UPDRS Parts II-III, non-inferiority versus placebo) ([1]; two-sided 95 percent CI of treatment difference, pre-specified margin of 5 points, day 43): did not worsen motor function
- activity in DOI induced head twitches [2]: effective
- attenuation of MK-801 induced hyperactivity [3]: effective
- reversal of DOI induced sensory motor gating deficit [4]: potently reversed the gating deficit
- disruption of learning of a simple auto-shaped response [5]: failed to disrupt learning
